Test results: the supplement of paper PMC11208160
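Note: IS621 recombinase and bridge RNA in Escherichia coli cells.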

Assay: recombinant barcode read abundance after kanamycin selection (control-corrected) (log10(CPM+1)); higher = more efficient recombination; sequences stand for … in AGTGCAGAGAAAATCGGCCAGTTTTCTCTGCCTGCAGTCCGCATGCCGT…AGATTTATGCAGCGGACTGCCTTTCTCCCAAAGTGATAAACCGGACAGTATCATGGACCGGTTTTCCCGGTAATCCGTATTTGCAAGGTTGGTTTCACT; site = the 11-nt target
Method in brief: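 Targets were screened in pooled form in E. coli against IS621 bridge RNA target-binding loops. Recombination efficiency is based on barcode counts at recombinant junctions in counts per million, averaged and corrected for the control. Numbers are shown as log10(CPM+1), with duplicate plates on chloramphenicol/ampicillin LB agar (control) or chloramphenicol/ampicillin/kanamycin with 0.1 mM IPTG.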
With “CAGTAATCTTGGGTTCTAACCTGTTGCCT (site CAGTAGTCTAG)” the “recombinant barcode read abundance (log10)” value was 0.169. In the case of “CGGAGAGCTTGGGTTCTAACCTGTTGCCT (site CCGAGAGCTAG)”, the “recombinant barcode read abundance (log10)” value is reported as 0.433. For “CACAGTACTTGGGTTCTAACCTGTTGCCT (site TACAGTACTAG)”, the “recombinant barcode read abundance (log10)” value was 0.0394. In the case of “TTGAGCTCTTGGGTTCTAACCTGTTGCCT (site TTGAACTCTAG)”, the “recombinant barcode read abundance (log10)” value is reported as 0.0507. With “AACAGTGCTTGGGTTCTAACCTGTTGCCT (site AACACTGCTAG)” the “recombinant barcode read abundance (log10)” value was 0.219. For “GCCGATACTTGGGTTCTAACCTGTTGCCA (site GCCGATACTTG)”, the “recombinant barcode read abundance (log10)” value was 0. For “AGGCCCACTTGGGTTCTAACCTGTTGCAT (site AGGCCCACTAT)”, the “recombinant barcode read abundance (log10)” value was 2.12. For “CTGGGCTCTTGGGTTCTAACCTGTTGCCA (site GTGGGCTCTAG)”, the “recombinant barcode read abundance (log10)” value was 0.282. In the case of “TGCTCTACTTGGGTTCTAACCTGTTGCTG (site TGCTCTACTCA)”, the “recombinant barcode read abundance (log10)” value is reported as 0.00915. In the case of “CACTGAGCTTGGGTTCTAACCTGTTGCCT (site CACTGAGCTAG)”, the “recombinant barcode read abundance (log10)” value is reported as 0.845. In the case of “TCGAAACCTTGGGTTCTAACCTGTTGCCT (site TCGAATCCTAG)”, the “recombinant barcode read abundance (log10)” value is reported as 0.0362. For “CGGGCCTCTTGGGTTCTAACCTGTTGCTT (site CGGGCCTCTCA)”, the “recombinant barcode read abundance (log10)” value was 0.148. For “GACGGAGCTTGGGTTCTAACCTGTTGCTG (site GACGGAGCTCA)”, the “recombinant barcode read abundance (log10)” value was 1.89. In the case of “GACCTGACTTGGGTTCTAACCTGTTGCCA (site GACCTGGCTCG)”, the “recombinant barcode read abundance (log10)” value is reported as 0.128. In the case of “ACGCGCCCTTGGGTTCTAACCTGTTGCAC (site ACGCGCCCTGT)”, the “recombinant barcode read abundance (log10)” value is reported as 0.152. In the case of “AGTTCTCCTTGGGTTCTAACCTGTTGCCT (site CGTTCTCCTAG)”, the “recombinant barcode read abundance (log10)” value is reported as 0.415. In the case of “TCGCACGCTTGGGTTCTAACCTGTTGCCT (site TCGCACGCTAG)”, the “recombinant barcode read abundance (log10)” value is reported as 0.205. With “TGGCTCCCTTGGGTTCTAACCTGTTGCCG (site TGGCTCCCTCC)” the “recombinant barcode read abundance (log10)” value was 0.077. With “ATAGACCCTTGGGTTCTAACCTGTTGCCT (site ATAGACCCTAG)” the “recombinant barcode read abundance (log10)” value was 2.36. For “AGATCTCCTTGGGTTCTAACCTGTTGCGT (site TCGAAGTCTTA)”, the “recombinant barcode read abundance (log10)” value was 0.0154. With “ATAGAATCTTGGGTTCTAACCTGTTGCTC (site ATAGAATCTGA)” the “recombinant barcode read abundance (log10)” value was 1.96. For “TTAGGGCCTTGGGTTCTAACCTGTTGCCT (site TTAGGGGCTAG)”, the “recombinant barcode read abundance (log10)” value was 0.0469. In the case of “GTTTCTTCTTGGGTTCTAACCTGTTGCCT (site GGTTCTTCTAG)”, the “recombinant barcode read abundance (log10)” value is reported as 0.171. For “TTGCGAGCTTGGGTTCTAACCTGTTGCAT (site TTGCGTGCTAA)”, the “recombinant barcode read abundance (log10)” value was 0.0906. With “CTGGTCACTTGGGTTCTAACCTGTTGCGG (site CTAGACACTCC)” the “recombinant barcode read abundance (log10)” value was 0.11. For “TGTGGAGCTTGGGTTCTAACCTGTTGCCG (site TGTCGAGCTCG)”, the “recombinant barcode read abundance (log10)” value was 0.469. For “GGTCCACCTTGGGTTCTAACCTGTTGCCT (site TGTCCACCTAG)”, the “recombinant barcode read abundance (log10)” value was 0.108. With “GAATCAACTTGGGTTCTAACCTGTTGCTT (site GAATCAACTAA)” the “recombinant barcode read abundance (log10)” value was 0.0878. In the case of “GTAACCTCTTGGGTTCTAACCTGTTGCCC (site GTAACCTCTGG)”, the “recombinant barcode read abundance (log10)” value is reported as 1.97. With “GTCGGTCCTTGGGTTCTAACCTGTTGCAC (site GTCGGTCCTGT)” the “recombinant barcode read abundance (log10)” value was 2.49. With “GGGGACCCTTGGGTTCTAACCTGTTGCGT (site GGGGACCCTCC)” the “recombinant barcode read abundance (log10)” value was 1.46. With “ACATGTACTTGGGTTCTAACCTGTTGCAG (site AGATGTACTCA)” the “recombinant barcode read abundance (log10)” value was 0.0852. For “GACCTACCTTGGGTTCTAACCTGTTGCCT (site GACGTACCTAG)”, the “recombinant barcode read abundance (log10)” value was 0.27. For “CGGGCCTCTTGGGTTCTAACCTGTTGCTT (site CGGGCCTCTTA)”, the “recombinant barcode read abundance (log10)” value was 0.336. For “AGTCCTGCTTGGGTTCTAACCTGTTGCCT (site AGTCCTGCTAG)”, the “recombinant barcode read abundance (log10)” value was 0.722. For “GTGTGTTCTTGGGTTCTAACCTGTTGCCT (site GTGTGTTCTAG)”, the “recombinant barcode read abundance (log10)” value was 0.726. In the case of “CAAGTACCTTGGGTTCTAACCTGTTGCCT (site CAAGTACCTAG)”, the “recombinant barcode read abundance (log10)” value is reported as 0.688. For “GTGAGGACTTGGGTTCTAACCTGTTGCCA (site GTAACGACTTG)”, the “recombinant barcode read abundance (log10)” value was 0.252. With “CCTAATACTTGGGTTCTAACCTGTTGCGT (site CCTTAGACTAC)” the “recombinant barcode read abundance (log10)” value was 0.0351. For “TTGGGTTCTTGGGTTCTAACCTGTTGCCT (site TTGGGTGCTCG)”, the “recombinant barcode read abundance (log10)” value was 0.0625. In the case of “ATGAGGCCTTGGGTTCTAACCTGTTGCCT (site GTGAGGCCTAG)”, the “recombinant barcode read abundance (log10)” value is reported as 0.173. With “TATTATACTTGGGTTCTAACCTGTTGCTT (site TATTATACTAC)” the “recombinant barcode read abundance (log10)” value was 0.116. For “GCAAGTTCTTGGGTTCTAACCTGTTGCCT (site GCAAGTTCTAG)”, the “recombinant barcode read abundance (log10)” value was 1.33. With “GGATCCACTTGGGTTCTAACCTGTTGCCT (site CGATCCACTAG)” the “recombinant barcode read abundance (log10)” value was 0.0861. In the case of “GTGTACCCTTGGGTTCTAACCTGTTGCGA (site GTGTACCCTTC)”, the “recombinant barcode read abundance (log10)” value is reported as 2.35. For “TTGAGTACTTGGGTTCTAACCTGTTGCCG (site TTGATTACTTG)”, the “recombinant barcode read abundance (log10)” value was 0.0556. In the case of “AGTTTAACTTGGGTTCTAACCTGTTGCAC (site GTCGGTCCTCG)”, the “recombinant barcode read abundance (log10)” value is reported as 0.258. For “TTAGATCCTTGGGTTCTAACCTGTTGCAT (site TTAGGTCCTCT)”, the “recombinant barcode read abundance (log10)” value was 0.00789. For “ATGGCGCCTTGGGTTCTAACCTGTTGCCT (site AAGGCGCCTAG)”, the “recombinant barcode read abundance (log10)” value was 0.296. With “TCTCGGCCTTGGGTTCTAACCTGTTGCCT (site TCTCCGCCTAG)” the “recombinant barcode read abundance (log10)” value was 0.394. In the case of “CTAACCTCTTGGGTTCTAACCTGTTGCTC (site CTAACCTCTCA)”, the “recombinant barcode read abundance (log10)” value is reported as 0.0593. For “GAGGACTCTTGGGTTCTAACCTGTTGCCA (site GAGGACTCTTG)”, the “recombinant barcode read abundance (log10)” value was 2.27. With “GATAGTTCTTGGGTTCTAACCTGTTGCCT (site GATAGTGCTAG)” the “recombinant barcode read abundance (log10)” value was 0.132. With “TAGGTCCCTTGGGTTCTAACCTGTTGCAT (site TAGGTTCCTAT)” the “recombinant barcode read abundance (log10)” value was 0.228. In the case of “GTCGCTACTTGGGTTCTAACCTGTTGCCG (site GTCCCTACTCG)”, the “recombinant barcode read abundance (log10)” value is reported as 0.0655. For “ACCCGTACTTGGGTTCTAACCTGTTGCCT (site ACCAGTACTAG)”, the “recombinant barcode read abundance (log10)” value was 0.063. For “TCTAGGACTTGGGTTCTAACCTGTTGCAA (site CGACAATCTAA)”, the “recombinant barcode read abundance (log10)” value was 0.29. For “TATTGATCTTGGGTTCTAACCTGTTGCCT (site TAATGATCTAG)”, the “recombinant barcode read abundance (log10)” value was 0.347. In the case of “ATTTCTACTTGGGTTCTAACCTGTTGCGA (site ATTTCTACTTC)”, the “recombinant barcode read abundance (log10)” value is reported as 0.194. With “GTAACTACTTGGGTTCTAACCTGTTGCGG (site GTAACTACTCC)” the “recombinant barcode read abundance (log10)” value was 2.1. With “AATGGTCCTTGGGTTCTAACCTGTTGCCA (site CTAATATCTAT)” the “recombinant barcode read abundance (log10)” value was 0.337. In the case of “ATATGTCCTTGGGTTCTAACCTGTTGCAA (site ATATGTCCTTT)”, the “recombinant barcode read abundance (log10)” value is reported as 0.715. For “CCTTGGACTTGGGTTCTAACCTGTTGCAA (site GCTTGGACTCT)”, the “recombinant barcode read abundance (log10)” value was 0.0226. With “GGATACACTTGGGTTCTAACCTGTTGCGT (site GGATACACTAC)” the “recombinant barcode read abundance (log10)” value was 2.76. For “TAGAAGTCTTGGGTTCTAACCTGTTGCAG (site TAGAAGTCTCT)”, the “recombinant barcode read abundance (log10)” value was 1.9. For “GGAAGTTCTTGGGTTCTAACCTGTTGCCT (site GCAAGTTCTAG)”, the “recombinant barcode read abundance (log10)” value was 0.0862. For “GGGTCCACTTGGGTTCTAACCTGTTGCGT (site GGGTCCACTAT)”, the “recombinant barcode read abundance (log10)” value was 1.45. For “CTGAGCCCTTGGGTTCTAACCTGTTGCCT (site CTGCGCCCTAG)”, the “recombinant barcode read abundance (log10)” value was 0.448. For “CTCTACACTTGGGTTCTAACCTGTTGCCA (site CTCTAGACTTG)”, the “recombinant barcode read abundance (log10)” value was 0.161. In the case of “TGGCGAGCTTGGGTTCTAACCTGTTGCCT (site TGGCCTGCTAG)”, the “recombinant barcode read abundance (log10)” value is reported as 0.152. In the case of “TGAACTACTTGGGTTCTAACCTGTTGCCT (site TGAATTACTAG)”, the “recombinant barcode read abundance (log10)” value is reported as 0.065. With “CATTGGACTTGGGTTCTAACCTGTTGCCT (site CAATGGACTAG)” the “recombinant barcode read abundance (log10)” value was 0.112. With “GCCGAGTCTTGGGTTCTAACCTGTTGCTT (site GCCGAGTCTGA)” the “recombinant barcode read abundance (log10)” value was 0.0417. In the case of “GGGCACTCTTGGGTTCTAACCTGTTGCGT (site GGGCACTCTAT)”, the “recombinant barcode read abundance (log10)” value is reported as 2.27. With “ATGAATGCTTGGGTTCTAACCTGTTGCCT (site ATGAATGCTAG)” the “recombinant barcode read abundance (log10)” value was 1.78. With “GCCTACCCTTGGGTTCTAACCTGTTGCGG (site GCCTACCCTCC)” the “recombinant barcode read abundance (log10)” value was 0.483. With “AATAGGGCTTGGGTTCTAACCTGTTGCGG (site AATAGGGCTCC)” the “recombinant barcode read abundance (log10)” value was 2.21. In the case of “GGCCTCCCTTGGGTTCTAACCTGTTGCCT (site GGCTTCCCTAG)”, the “recombinant barcode read abundance (log10)” value is reported as 0.0579. In the case of “TAGGCGCCTTGGGTTCTAACCTGTTGCAT (site TAGGCGCCTAT)”, the “recombinant barcode read abundance (log10)” value is reported as 0.299. For “CATTCTGCTTGGGTTCTAACCTGTTGCCT (site CAGTCTGCTAG)”, the “recombinant barcode read abundance (log10)” value was 0.136. With “ACGCATTCTTGGGTTCTAACCTGTTGCCT (site ACGCAATCTAG)” the “recombinant barcode read abundance (log10)” value was 0.0565. For “ATAGGTCCTTGGGTTCTAACCTGTTGCCT (site ATAGGTCCTAG)”, the “recombinant barcode read abundance (log10)” value was 1.58. With “AGTCTAGCTTGGGTTCTAACCTGTTGCTA (site AGTCTAGCTGA)” the “recombinant barcode read abundance (log10)” value was 0.166. For “GGCAGTCCTTGGGTTCTAACCTGTTGCCT (site GGCAGTCCTAG)”, the “recombinant barcode read abundance (log10)” value was 0.206. With “CAAAAGGCTTGGGTTCTAACCTGTTGCCT (site ATCGTACCTTA)” the “recombinant barcode read abundance (log10)” value was 0.469. In the case of “CTATAGACTTGGGTTCTAACCTGTTGCCA (site CTATAGACTTG)”, the “recombinant barcode read abundance (log10)” value is reported as 0.079.
